# Several values for one entry are separate records, joined by “and”; a condition that tells them apart may be missing. Identical values can stand only once. Like-named read-outs stand apart in the source and are kept apart here.
# What was measured:
# [1] = General appearance of patches with non-volatile coadjuvants (visual and tactile inspection); assay type: physicochemical; settings: selegiline patches in DT 87-2353
# [2] = Loss of selegiline during manufacture (after drying), HPLC; assay type: physicochemical; settings: up to 15%
# Protocol: Lots with DT 87-2353 as adhesive, selegiline and increasing amounts of squalene (SQ) and triethylcitrate (TEC) were manufactured as described in “Description of the manufacturing process” above and the amount of selegiline present after drying was measured.
# Selegiline content was analysed by HPLC using a suitable technique
# [3] = Shear adhesion / holding power (PSTC-7) of plain adhesives and transdermal devices; assay type: physicochemical
# Protocol: Holding power (shear adhesion): The ability of a tape to resist the static forces applied in the same plane as the backing. Usually expressed in a time required for a given weight per unit area to cause a given amount of tape to come loose from a vertical panel.
# Throughout this specification, including the claims, the adhesive properties of shear adhesion and peel adhesion are measured employing the test methods adopted by the PSTC (Pressure Sensitive Tape Council) for Peel Adhesion (PSTC-1 Peel Adhesion of Single Coated Pressure Sensitive Tapes at 180° Angle) and Shear Adhesion (PSTC-7 Holding Power of Pressure Sensitive Tapes). The unit for peel adhesion is newtons/inch, and the unit for holding power (shear adhesion) is minutes. The test of holding power is performed under a load of 4 lbs/in^2 (28 kPa) and at 72° F. (22° C.).
# Adhesive properties were measured as described above. The plain adhesive values given are those of the dry adhesive polymer composition without added components.
# shaved skin = experiment: Evaluation of dermal irritation in rabbits (Example 3); assay type: in vivo, rabbits (New Zealand Albino); set-up: key to Score for Skin Erythema 1 h / Score for Skin Erythema 2 h / Score for Skin Erythema 4 h / Score for Skin Erythema 6 h / Score for Skin Erythema 8 h / Score for Skin Erythema 24 h: 0: No redness (erythema).; 1: Barely perceptible redness.; 2: Well defined redness.; 3: Severe Erythema (beet redness) to slight eschar formation (injuries in depth)
# Protocol: Dermal irritation was tested using transdermal delivery devices manufactured as described in “Description of the manufacturing process” above with acrylic adhesives with different functionality and 15% of selegiline, all of them with shear value of more than 1.5 hours and less than 15 hours for the plain adhesive and without crosslinker agents (see Table 3). Each formulation was tested on 6 rabbits, with evaluations at 1, 2, 4, 6, 8 and 24 hrs. The degree of adhesion and glue residue was also evaluated with skin reactions on an open-label 1-day-study. Rabbits belonging to the New Zealand Albino strain were used as animal model. According protocol, and after 14 days of acclimatization, the fur of back of 6 male rabbits was thoroughly shaved. Twenty four hours later one patch of each formulation of 10.6 cm^2 was glued in each rabbit to the shaved skin, according to a randomized schedule.
# Pure selegiline (25 μl) was used as control covered by Transpore tape (from 3M).
# The irritation observed was classified according to the following scoring system: • Scale used for scoring erythema: • 0: No redness (erythema). • 1: Barely perceptible redness. • 2: Well defined redness. • 3: Severe Erythema (beet redness) to slight eschar formation (injuries in depth).
# Reactions were scored as if they were covering the entire skin area treated (maximum score).
# The Dermal Irritation Index (DII) was calculated as the average of the individual data at each evaluation time.
# The dermal irritation indexes obtained were interpreted following ISO/WD 10993-10: […]
# [4] = 1% selegiline in the coadjuvant, seven days at 40° C.
# [5] = 1% selegiline in the coadjuvant, seven days at 40° C., control pure selegiline
smiles,measurement,setting,value
"CCOC(=O)CC(O)(CC(=O)OCC)C(=O)OCC [TEC, triethylcitrate]",Amount up to which the coadjuvant is suitable,[1],up to 15%
same,"Effect of coadjuvant on selegiline loss during drying, in words",[2],diminishes the amount of active drug loss during drying in a concentration dependent manner
same,Impurity rrt: 1.56,[4],0.42%
same,Impurity rrt: 2.09,[4],0.98%
same,Selegiline base (chromatographic purity),[5],98.58%
"C#CCN(C)[C@H](C)Cc1ccccc1 [pure selegiline, selegiline]",Effect of the drug on cohesiveness of the adhesives (measured by the shear test),[3],reduces the cohesiveness in all the adhesives
same,Score for Skin Erythema 1 h,"shaved skin; individual rabbits 1-6, 10.6 cm^2 patch, 1 h",0
same,Score for Skin Erythema 2 h,"shaved skin; individual rabbits 1-6, 2 h",0 (5×) and 1
same,Score for Skin Erythema 4 h,"shaved skin; individual rabbits 1-6, 4 h",0 (5×) and 1
same,Score for Skin Erythema 6 h,"shaved skin; individual rabbits 1-6, 6 h",0 (3×) and 1 (3×)
same,Score for Skin Erythema 8 h,"shaved skin; individual rabbits 1-6, 8 h",1
same,Score for Skin Erythema 24 h,"shaved skin; individual rabbits 1-6, 24 h",1 (5×) and 0
same,DII (Dermal Irritation Index),"shaved skin; individual rabbits 1-6, average over evaluation times",0.3 (4×) and 0.5 and 0.8
same,Erythema Score 1 h,"shaved skin; mean of 6 rabbits, 1 h",0.0
same,Erythema Score 2 h,"shaved skin; mean of 6 rabbits, 2 h",0.2
same,Erythema Score 4 h,"shaved skin; mean of 6 rabbits, 4 h",0.2
same,Erythema Score 6 h,"shaved skin; mean of 6 rabbits, 6 h",0.5
same,Erythema Score 8 h,"shaved skin; mean of 6 rabbits, 8 h",1.0
same,Erythema Score 24 h,"shaved skin; mean of 6 rabbits, 24 h",0.8
same,"DII (Dermal Irritation Index), Erythema Score line","shaved skin; overall, 6 rabbits, all times",0.4
same,Impurity (any secondary peak),,≦0.05%
same,Selegiline base (chromatographic purity),,99.98%
"CCN(C)C(=O)Oc1cccc([C@H](C)N(C)C)c1 [Rivastigmine, rivastigmine]",Effect of the drug on cohesiveness of the adhesives (measured by the shear test),[3],reduces the cohesiveness in all the adhesives
CC(C)=CCC/C(C)=C/CC/C(C)=C/CC/C=C(\C)CC/C=C(\C)CCC=C(C)C [squalene],Amount up to which the coadjuvant is suitable,[1],up to 15%
same,"Effect of coadjuvant on selegiline loss during drying, in words",[2],diminishes the amount of active drug loss during drying in a concentration dependent manner
same,Impurity rrt: 2.04,[4],0.07%
same,Selegiline base (chromatographic purity),[5],99.89%
